This note sets out measurements from patent US20250177525A1, “POLYDONOR CD4+ T CELLS EXPRESSING IL-10 AND USES THEREOF” (TR1X, INC., priority 2021, published 2025).

In the experiment the test system is NLPR3 inflammasome. Description: IL-1β production by LPS activated monocytes. It is filed as cell-based, human. The following applies: anti-IL-10R antibody. Here is the method:
CD14^+ monocytes were isolated from PBMC using a pan monocyte isolation kit (Miltenyi Biotec, Bergisch Gladbach, Germany) and plated in 96 flat microtiter wells at 2×10^5/200 μL per well and cultured in the presence of LPS. The cells were cultured further in the presence of Z-YVADfmk (20 microMol), MMC950 (10 microMol), IL-10 (10 ng/mL) or various concentrations of single- or pooled donor CD4^IL-10 cell supernatants as summarized in Table 1.
The supernatants were obtained from single- or pooled donor CD4^IL-10 cells activated for 72 hours with a combination of CD3 and CD28 antibodies as described previously. (Andolfi et al. 2012, Mol. Therapy Vol. 20, 1778-1790, Locafaro et al. Mol Ther 2017, 25, 2254) In some cases (FIGS. 19C and 19D), the monocytes were incubated with LPS in combination with the NLPR3 inflammasome activator nigericin (“NIG”) which was added during the last 30 minutes of the LPS activation.
The NLPR3 inflammasome was activated by LPS, resulting in the production of mature caspase 1 and the biologically active forms of IL-1β and IL-18.

`CC(C)(O)c1coc(S(=O)(=O)NC(=O)Nc2c3c(cc4c2CCC4)CCC3)c1` [MCC950]: the “effect of anti-IL-10 receptor antibody on the inhibitory effects” value is reported as “no effect”.

Take Z-YVADfmk [Z-VADfmk]: the “effect of anti-IL-10 receptor antibody on the inhibitory effects” value is recorded as “no effect”.
